This note sets out measurements from patent US20100298300A1, “TRIAZOLOPYRAZINE COMPOUNDS USEFUL FOR THE TREATMENT OF DEGENERATIVE & INFLAMMATORY DISEASES” (priority 2006, published 2010).

Assay [1] concerns MMP1 expression by activated primary synovial fibroblasts. Kind of assay: 'MMP assay': MMP1 expression by complex trigger activated synovial fibroblasts (MMP1 ELISA). Type of assay: cell-based. The conditions noted are these: Homo sapiens, Fibroblast; for EC50: RASFs, complex trigger, 48 hrs, MMP1 ELISA. A general note: An ELISA detects its analyte on a solid surface through an enzyme-linked reagent.

The target in another assay is T1, MAPKAPK5 (Homo sapiens, UniProt Q8IW41).
T1 sequence (Q8IW41 1-471 isoform Q8IW41-2): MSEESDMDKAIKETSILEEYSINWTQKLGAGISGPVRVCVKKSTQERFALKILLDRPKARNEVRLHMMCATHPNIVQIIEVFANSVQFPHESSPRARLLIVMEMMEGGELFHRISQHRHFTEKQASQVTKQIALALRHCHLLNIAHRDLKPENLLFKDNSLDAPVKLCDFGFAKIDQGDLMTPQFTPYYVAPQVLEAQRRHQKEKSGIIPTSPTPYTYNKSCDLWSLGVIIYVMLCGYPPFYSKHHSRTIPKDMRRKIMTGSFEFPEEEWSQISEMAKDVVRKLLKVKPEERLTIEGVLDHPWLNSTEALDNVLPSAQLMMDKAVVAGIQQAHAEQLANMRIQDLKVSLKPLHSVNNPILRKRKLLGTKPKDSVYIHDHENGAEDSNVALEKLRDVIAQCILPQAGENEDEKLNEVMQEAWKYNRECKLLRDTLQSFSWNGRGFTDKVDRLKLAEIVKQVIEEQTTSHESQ
As to the kind of experiment: MAPKAP-K5 assay (FlashPlate kinase assay).

For the compound `O=C(NCc1cc(-c2ccccc2)on1)c1ccc(Nc2ncc(-c3ccc4c(c3)CNC4=O)n3ncnc23)cc1` [Compound 197], the EC50 (usually the concentration needed to bring the measured effect to its halfway point) in assay [1] (Table 4) is greater than 1000 nM. Further, the IC50 (in general, the concentration that inhibits the measured activity by half) against MAPKAPK5 was greater than 1000 nM. At MAPKAPK5, `CC(C)N1CCC(Nc2ncc(-c3ccc4c(c3)CNC4=O)n3ncnc23)CC1` [Compound 186] yielded an IC50 greater than 1000 nM. `CCN1CCN(C(=O)c2ccc(Nc3ncc(-c4cn[nH]c4)n4ncnc34)cc2)CC1` [Compound 138] returned an EC50 in assay [1] (Table 4) greater than 1000 nM. Further, the IC50 on MAPKAPK5 lay in the range of 501 to 1000 nM. For `O=C(NCC1CC1)c1ccc(Nc2ncc(-c3cn[nH]c3)n3ncnc23)cc1` [Compound 142] the same measures were greater than 1000 nM and greater than 1000 nM. In turn, `NC(=O)c1cccc2c(-c3cnc(Nc4ccc(N5CCOCC5)cc4)c4ncnn34)csc12` [Compound 80, 3-[8-(4-Morpholin-4-ylphenylamino)-[1,2,4]triazolo[1,5-a]pyrazin-5-yl]-benzo[b]thiophene-7-carboxylic acid amide] came in with an EC50 in assay [1] (Table 3) of 101 to 500 nM. This compound also yielded an IC50 against MAPKAPK5 greater than 1000 nM. On to `COc1cc(Nc2ncc(-c3cn[nH]c3)n3ncnc23)ccc1C(=O)NCc1ccccc1` [Compound 122, N-Benzyl-2-methoxy-4-[5-(1H-pyrazol-4-yl)-[1,2,4]triazolo[1,5-a]pyrazin-8-ylamino]-benzamide], for which the EC50 in assay [1] (Table 4) was greater than 1000 nM. Besides, the IC50 on MAPKAPK5 was greater than 1000 nM. Consider `NC(=O)c1cccc(Nc2ncc(-c3cn[nH]c3)n3ncnc23)c1` [Compound 128], for which the EC50 in assay [1] (Table 4) is greater than 1000 nM. The same compound had an IC50 against MAPKAPK5 greater than 1000 nM. In assay [1] (Table 3), `Cc1sc(C(N)=O)cc1-c1cnc(Nc2ccc(N3CCN(C(C)C)CC3)nc2)c2ncnn12` [Compound 96] came in with an EC50 greater than 1000 nM. The compound also showed an IC50 on MAPKAPK5 greater than 1000 nM. As to `CCOCCN1CCN(C(=O)c2ccc(Nc3ncc(-c4cn[nH]c4)n4ncnc34)cc2)CC1` [Compound 141], the EC50 in assay [1] (Table 4) is greater than 1000 nM. The compound further showed an IC50 at MAPKAPK5 of 501 to 1000 nM. For `O=C(NCc1ccc(O)cc1)c1cccc(Nc2ncc(-c3cn[nH]c3)n3ncnc23)c1` [Compound 131, N-(4-Hydroxybenzyl) 3-[5-(1H-pyrazol-4-yl)-[1,2,4]triazolo[1,5-a]pyrazin-8-ylamino]benzamide], in that order: 501 to 1000 nM and greater than 1000 nM. `O=C1NCc2cc(-c3cnc(NC4CCNCC4)c4ncnn34)ccc21` [Compound 185] yielded an EC50 in assay [1] (Table 3) greater than 1000 nM. In addition, on MAPKAPK5, the IC50 is greater than 1000 nM. `O=C(NCc1ccccc1)c1cccc(Nc2ncc(-c3cn[nH]c3)n3ncnc23)c1` [Compound 123] displayed an EC50 in assay [1] (Table 4) greater than 1000 nM. On MAPKAPK5, the IC50 was greater than 1000 nM.

For the compound `O=C(NCc1cc(-c2ccccc2)on1)c1ccc(Nc2ncc(-c3cn[nH]c3)n3ncnc23)cc1` [Compound 192], the EC50 in assay [1] (Table 4) lay in the range of 101 to 500 nM. In addition, the IC50 against MAPKAPK5 is greater than 1000 nM. On to `O=C(NCc1cccnc1)c1ccc(Nc2ncc(-c3cc[nH]c(=O)c3)n3ncnc23)cc1` [Compound 119, 4-(5-(2-Oxo-1,2-dihydropyridin-4-yl)-[1,2,4]triazolo[1,5-a]pyrazin-8-ylamino)-N-(pyridin-3-ylmethyl)benzamide], for which, in assay [1] (Table 4), the 50% effective concentration (EC50) is greater than 1000 nM. This compound had an IC50 at MAPKAPK5 greater than 1000 nM.

In assay [1] (Table 4), `COCCN(C)C(=O)c1ccc(Nc2ncc(-c3cn[nH]c3)n3ncnc23)cc1` [Compound 156] showed an EC50 greater than 1000 nM. This compound also showed an IC50 at MAPKAPK5 greater than 1000 nM. In assay [1] (Table 4), `O=C(Nc1ccc(N2CCOCC2)nc1)c1ccc(Nc2ncc(-c3cn[nH]c3)n3ncnc23)cc1` [Compound 194] returned an EC50 of 501 to 1000 nM. The compound also gave an IC50 against MAPKAPK5 greater than 1000 nM. The compound `CC(C)N1CCN(c2ccc(Nc3ncc(-c4ccc5c(c4)C(=O)NC5)n4ncnc34)cc2)CC1` [Compound 109] gave an EC50 in assay [1] (Table 3) greater than 1000 nM. For the same compound, at MAPKAPK5, the IC50 was greater than 1000 nM.

`CN(C)Cc1cc(Nc2ncc(-c3ccc4c(c3)CNC4=O)n3ncnc23)ccc1N1CCOCC1` [Compound 175] showed an EC50 in assay [1] (Table 3) greater than 1000 nM. As for `O=C(NCC1CCCO1)c1ccc(Nc2ncc(-c3cn[nH]c3)n3ncnc23)cc1` (stereo not shown) [Compound 158], the EC50 in assay [1] (Table 4) is greater than 1000 nM. In addition, the IC50 on MAPKAPK5 fell in the range of 501 to 1000 nM. Regarding `O=C(c1ccc(Nc2ncc(-c3cn[nH]c3)n3ncnc23)cc1)N1CCC(N2CCCCC2)CC1` [Compound 165], the EC50 in assay [1] (Table 4) is greater than 1000 nM. Also, the IC50 on MAPKAPK5 was greater than 1000 nM. As for `CCN1CCCC1CNC(=O)c1ccc(Nc2ncc(-c3cn[nH]c3)n3ncnc23)cc1` (stereo not shown) [Compound 139], in assay [1] (Table 4), the EC50 is greater than 1000 nM. The compound further returned an IC50 at MAPKAPK5 of 501 to 1000 nM. For `O=C(c1ccc(Nc2ncc(-c3cn[nH]c3)n3ncnc23)cc1)N1CC=CCC1` [Compound 159], in that order: greater than 1000 nM and 501 to 1000 nM. `O=C(NCCO)c1ccc(Nc2ncc(-c3cn[nH]c3)n3ncnc23)cc1` [Compound 166] had a concentration for a half-maximal effect (EC50) in assay [1] (Table 4) greater than 1000 nM. The IC50 on MAPKAPK5 lay within 501 to 1000 nM. For `CNC(=O)C1CCN(C(=O)c2ccc(Nc3ncc(-c4cn[nH]c4)n4ncnc34)cc2)CC1` [Compound 136] the same measures were greater than 1000 nM and 501 to 1000 nM. For the compound `CC(C)N1CCN(c2ccc(Nc3ncc(-c4ccnc(CO)c4)n4ncnc34)cc2)CC1` [Compound 83, (4-{8-[4-(4-Isopropylpiperazin-1-yl)-phenylamino]-[1,2,4]triazolo[1,5-a]pyrazin-5-yl}pyridin-2-yl)methanol], the EC50 in assay [1] (Table 3) was greater than 1000 nM. Also, the IC50 at MAPKAPK5 is greater than 1000 nM. Regarding `COc1cc(Nc2ncc(-c3csc(C(N)=O)c3)n3ncnc23)ccc1C(=O)NCc1ccc(C)nc1` [Compound 121], in assay [1] (Table 4), the EC50 was greater than 1000 nM. The compound also came in with an IC50 at MAPKAPK5 greater than 1000 nM. As for `Cc1sc(C(N)=O)cc1-c1cnc(Nc2ccc(N3CCN(C(C)C)CC3)cc2)c2ncnn12` [Compound 95], the EC50 in assay [1] (Table 3) is greater than 1000 nM. The compound further returned an IC50 against MAPKAPK5 greater than 1000 nM. Compound `CCOC(=O)CN(Cc1ccccc1)C(=O)c1ccc(Nc2ncc(-c3cn[nH]c3)n3ncnc23)cc1` [Compound 154] displayed an EC50 in assay [1] (Table 4) greater than 1000 nM. At MAPKAPK5, this compound registered an IC50 greater than 1000 nM.

Take `CC(C)N1CCCN(c2ccc(Nc3ncc(-c4cn[nH]c4)n4ncnc34)cc2)CC1` [Compound 187]: at MAPKAPK5, the IC50 was greater than 1000 nM. Take `CCC(C)N1CCN(C(=O)c2ccc(Nc3ncc(-c4cn[nH]c4)n4ncnc34)cc2)CC1` (stereo not shown) [Compound 152]: in assay [1] (Table 4), the EC50 was greater than 1000 nM. For the same compound, at MAPKAPK5, the IC50 lay in the range of 501 to 1000 nM.

Take `O=C(c1ccc(Nc2ncc(-c3cn[nH]c3)n3ncnc23)cc1)N1CC=CC1` [Compound 140]: the EC50 in assay [1] (Table 4) was greater than 1000 nM. On MAPKAPK5, the IC50 is 501 to 1000 nM. For `COc1cc(Nc2ncc(-c3csc(C(N)=O)c3)n3ncnc23)ccc1C(=O)NCc1ccccc1` [Compound 132], in that order: greater than 1000 nM and greater than 1000 nM. Consider `Nc1nccn1-c1ncc(-c2ccc3c(c2)CNC3=O)n2ncnc12` [Compound 168], for which the EC50 in assay [1] (Table 3) was greater than 1000 nM. The compound further gave an IC50 on MAPKAPK5 greater than 1000 nM. `O=C(NCc1cccnc1)c1ccc(Nc2ncc(-c3cn[nH]c3)n3ncnc23)cc1` [Compound 118, 4-(5-(1H-Pyrazol-4-yl)-[1,2,4]triazolo[1,5-a]pyrazin-8-ylamino)-N-(pyridin-3-ylmethyl)benzamide] had an EC50 in assay [1] (Table 4) greater than 1000 nM. The compound also had an IC50 on MAPKAPK5 greater than 1000 nM. The compound `c1nc2c(Nc3ccc(N4CCOCC4)cc3)ncc(-c3ccc4cn[nH]c4c3)n2n1` [Compound 93] registered an EC50 in assay [1] (Table 3) greater than 1000 nM. Further, the IC50 against MAPKAPK5 is greater than 1000 nM. In assay [1] (Table 4), `O=C(c1ccc(Nc2ncc(-c3cn[nH]c3)n3ncnc23)cc1)N1CCN(c2ccccc2)CC1` [Compound 145] displayed an EC50 greater than 1000 nM. At MAPKAPK5, this compound registered an IC50 of 501 to 1000 nM. In assay [1] (Table 4), `O=C(NCc1ccccn1)c1cccc(Nc2ncc(-c3cn[nH]c3)n3ncnc23)c1` [Compound 124, N-Pyridin-2-ylmethyl 3-[5-(1H-pyrazol-4-yl)-[1,2,4]triazolo[1,5-a]pyrazin-8-ylamino]benzamide] displayed an EC50 greater than 1000 nM. Moreover, the IC50 on MAPKAPK5 is greater than 1000 nM. As for `O=C(N[C@H]1CCN(Cc2ccccc2)C1)c1ccc(Nc2ncc(-c3cn[nH]c3)n3ncnc23)cc1` [Compound 191], at MAPKAPK5, the IC50 was greater than 1000 nM.

`COCCN1CCC(c2ccc(Nc3ncc(-c4ccc5c(c4)CNC5=O)n4ncnc34)cc2)CC1` [Compound 189] gave an IC50 on MAPKAPK5 of 1 to 100 nM.

`CCN1CCC[C@H]1CNC(=O)c1ccc(Nc2ncc(-c3cn[nH]c3)n3ncnc23)cc1` [Compound 163] yielded an EC50 in assay [1] (Table 4) greater than 1000 nM. `CC(C)N1CCCN(c2ccc(Nc3ncc(-c4ccc5c(c4)CNC5=O)n4ncnc34)cc2)CC1` [Compound 188]: the IC50 on MAPKAPK5 was in the range of 1 to 100 nM. The same measure, in the same setting: the same measure for `CC(C)N1CCN(c2ccc(Nc3ncc(-c4ccc5cn[nH]c5c4)n4ncnc34)cc2)CC1` [Compound 106]: greater than 1000 nM.

In the case of `O=C(Nc1ccc(Nc2ncc(-c3cn[nH]c3)n3ncnc23)cn1)c1ccccc1` [Compound 135], at MAPKAPK5, the IC50 is greater than 1000 nM. Turning to `C[C@@H]1C[C@H]2[C@@H]3CCC4=CC(=O)C=C[C@]4(C)[C@@]3(F)[C@@H](O)C[C@]2(C)[C@@]1(O)C(=O)CO` [dexamethasone, reference compound], in assay [1] (complex trigger activated SFs, 48 hrs after treatment, FIG. 3, read-out: IC50 of reduction of MMP1 expression by SFs), the IC50 was roughly 1 nM. As for `O=C(c1ccc(Nc2ncc(-c3cn[nH]c3)n3ncnc23)cc1)N1CCN(Cc2ccc(F)cc2)CC1` [Compound 144], the IC50 against MAPKAPK5 lay within 501 to 1000 nM.
